In the supplement of paper PMC10307832:

Experiments:
Assay in all cases: relative viability (nuclei count vs DMSO), 5 days (fraction); higher = more cells survive
A-427 = tested on: A-427
Outline: (§1)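 One day after seeding in 1536-well plates, lung cancer cell lines were dosed by pin tool. Dosing was either single-drug or a fixed anchor-drug dose plus five library-drug doses (not always all listed) in √10 steps. After 5 days, nuclei were stained in one fix-and-stain step and counted on 4× images, and relative viability is the nuclei count of treated wells over that of vehicle wells, given as the median of duplicate plates.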

COR-L 105 = tested on: COR-L 105
Outline: as §1

EPLC-272H = tested on: EPLC-272H
Outline: as §1

HCC-366 = tested on: HCC-366
Outline: as §1

HCC-78 = tested on: HCC-78
Outline: as §1

HOP-62 = tested on: HOP-62
Outline: as §1

LC-2-ad = tested on: LC-2-ad
Outline: as §1

LCLC-97TM1 = tested on: LCLC-97TM1
Outline: as §1

LU99A = tested on: LU99A
Outline: as §1

LXF-289 = tested on: LXF-289
Outline: as §1

NCI-H1755 = tested on: NCI-H1755
Outline: as §1

NCI-H1792 = tested on: NCI-H1792
Outline: as §1

NCI-H1793 = tested on: NCI-H1793
Outline: as §1

NCI-H1915 = tested on: NCI-H1915
Outline: as §1

NCI-H1944 = tested on: NCI-H1944
Outline: as §1

NCI-H1975 = tested on: NCI-H1975
Outline: as §1

NCI-H2085 = tested on: NCI-H2085
Outline: as §1

NCI-H358 = tested on: NCI-H358
Outline: as §1

NCI-H460 = tested on: NCI-H460
Outline: as §1

SK-LU-1 = tested on: SK-LU-1
Outline: as §1

UMC-11 = tested on: UMC-11
Outline: as §1

Compound `CC1(C)CCC(c2ccc(Cl)cc2)=C(CN2CCN(c3ccc(C(=O)NS(=O)(=O)c4ccc(N[C@H](CCN5CCOCC5)CSc5ccccc5)c(S(=O)(=O)C(F)(F)F)c4)cc3)CC2)C1` [Navitoclax] + C[C@]1(O)C[C@@H](c2nc(-c3ccc4ccc(-c5ccccc5)nc4c3)c3c(N)nccn32)C1 [Linsitinib] (partner 1 µM) has a relative viability (A-427; first compound 0.005 µM) of 1.13, a relative viability (A-427; first compound 0.01581 µM) of 1.11 and a relative viability (A-427; first compound 0.05 µM) of 0.911. The relative viability (A-427; first compound 0.1581 µM) was 1.12, the relative viability (A-427; first compound 0.5 µM) was 1.15 and the relative viability (COR-L 105; first compound 0.005 µM) was 0.937. The relative viability (COR-L 105; first compound 0.01581 µM) was 1.02, the relative viability (COR-L 105; first compound 0.05 µM) was 1.05 and the relative viability (COR-L 105; first compound 0.1581 µM) was 1.09. For the same compound, the relative viability (COR-L 105; first compound 0.5 µM) was 0.979, the relative viability (EPLC-272H; first compound 0.005 µM) was 1.29 and the relative viability (EPLC-272H; first compound 0.1581 µM) was 1.26. The relative viability (EPLC-272H; first compound 0.5 µM) was 0.997, the relative viability (HCC-366; first compound 0.005 µM) was 0.672 and the relative viability (HCC-366; first compound 0.01581 µM) was 0.728. The relative viability (HCC-366; first compound 0.05 µM) was 0.155, the relative viability (HCC-366; first compound 0.1581 µM) was 0.615 and the relative viability (HCC-366; first compound 0.5 µM) was 0.449. It also gave a relative viability (HCC-78; first compound 0.005 µM) of 0.468, a relative viability (HCC-78; first compound 0.01581 µM) of 0.604 and a relative viability (HCC-78; first compound 0.1581 µM) of 0.523. For the same compound, the relative viability (HCC-78; first compound 0.5 µM) was 0.576, the relative viability (HOP-62; first compound 0.005 µM) was 0.976 and the relative viability (HOP-62; first compound 0.01581 µM) was 0.871. It also gave a relative viability (HOP-62; first compound 0.05 µM) of 0.955, a relative viability (HOP-62; first compound 0.1581 µM) of 0.767 and a relative viability (HOP-62; first compound 0.5 µM) of 0.923. For the same compound, the relative viability (LC-2-ad; first compound 0.005 µM) was 0.853, the relative viability (LC-2-ad; first compound 0.01581 µM) was 0.904 and the relative viability (LC-2-ad; first compound 0.05 µM) was 0.787. The relative viability (LC-2-ad; first compound 0.1581 µM) was 0.789, the relative viability (LC-2-ad; first compound 0.5 µM) was 0.796 and the relative viability (LCLC-97TM1; first compound 0.005 µM) was 0.189. It also gave a relative viability (LCLC-97TM1; first compound 0.01581 µM) of 0.186, a relative viability (LCLC-97TM1; first compound 0.05 µM) of 0.193 and a relative viability (LCLC-97TM1; first compound 0.1581 µM) of 0.18. The relative viability (LCLC-97TM1; first compound 0.5 µM) was 0.172, the relative viability (LU99A; first compound 0.005 µM) was 0.622 and the relative viability (LU99A; first compound 0.01581 µM) was 0.67. For the same compound, the relative viability (LU99A; first compound 0.05 µM) was 0.444, the relative viability (LU99A; first compound 0.1581 µM) was 0.543 and the relative viability (LU99A; first compound 0.5 µM) was 0.522. It also gave a relative viability (LXF-289; first compound 0.005 µM) of 0.971, a relative viability (LXF-289; first compound 0.01581 µM) of 0.974 and a relative viability (LXF-289; first compound 0.05 µM) of 0.84. The relative viability (LXF-289; first compound 0.1581 µM) was 0.978, the relative viability (LXF-289; first compound 0.5 µM) was 0.966 and the relative viability (NCI-H1755; first compound 0.005 µM) was 0.969. It also gave a relative viability (NCI-H1755; first compound 0.01581 µM) of 0.993, a relative viability (NCI-H1755; first compound 0.05 µM) of 0.954 and a relative viability (NCI-H1755; first compound 0.1581 µM) of 0.968. The relative viability (NCI-H1755; first compound 0.5 µM) was 1.02, the relative viability (NCI-H1792; first compound 0.005 µM) was 0.554 and the relative viability (NCI-H1792; first compound 0.01581 µM) was 0.629. It also gave a relative viability (NCI-H1792; first compound 0.05 µM) of 0.414, a relative viability (NCI-H1792; first compound 0.1581 µM) of 0.539 and a relative viability (NCI-H1792; first compound 0.5 µM) of 0.609. For the same compound, the relative viability (NCI-H1793; first compound 0.005 µM) was 0.97, the relative viability (NCI-H1793; first compound 0.01581 µM) was 1.17 and the relative viability (NCI-H1793; first compound 0.05 µM) was 0.643. The relative viability (NCI-H1793; first compound 0.1581 µM) was 0.834, the relative viability (NCI-H1793; first compound 0.5 µM) was 0.766 and the relative viability (NCI-H1915; first compound 0.005 µM) was 1.1. The relative viability (NCI-H1915; first compound 0.01581 µM) was 1.12, the relative viability (NCI-H1915; first compound 0.05 µM) was 1.07 and the relative viability (NCI-H1915; first compound 0.1581 µM) was 1.05. For the same compound, the relative viability (NCI-H1915; first compound 0.5 µM) was 1.06, the relative viability (NCI-H1944; first compound 0.005 µM) was 1.19 and the relative viability (NCI-H1944; first compound 0.01581 µM) was 1.33. For the same compound, the relative viability (NCI-H1944; first compound 0.05 µM) was 1.01, the relative viability (NCI-H1944; first compound 0.1581 µM) was 1.19 and the relative viability (NCI-H1944; first compound 0.5 µM) was 1.17. The relative viability (NCI-H1975; first compound 0.005 µM) was 1.01, the relative viability (NCI-H1975; first compound 0.01581 µM) was 1.14 and the relative viability (NCI-H1975; first compound 0.05 µM) was 1.07. The relative viability (NCI-H1975; first compound 0.1581 µM) was 0.869, the relative viability (NCI-H1975; first compound 0.5 µM) was 1 and the relative viability (NCI-H2085; first compound 0.005 µM) was 0.828. For the same compound, the relative viability (NCI-H2085; first compound 0.01581 µM) was 0.96, the relative viability (NCI-H2085; first compound 0.05 µM) was 0.831 and the relative viability (NCI-H2085; first compound 0.1581 µM) was 1. For the same compound, the relative viability (NCI-H2085; first compound 0.5 µM) was 0.947, the relative viability (NCI-H358; first compound 0.005 µM) was 0.763 and the relative viability (NCI-H358; first compound 0.01581 µM) was 0.956. It also gave a relative viability (NCI-H358; first compound 0.05 µM) of 0.813, a relative viability (NCI-H358; first compound 0.1581 µM) of 0.898 and a relative viability (NCI-H358; first compound 0.5 µM) of 0.822. It also gave a relative viability (NCI-H460; first compound 0.005 µM) of 0.77, a relative viability (NCI-H460; first compound 0.01581 µM) of 0.825 and a relative viability (NCI-H460; first compound 0.05 µM) of 0.919. For the same compound, the relative viability (NCI-H460; first compound 0.1581 µM) was 0.896, the relative viability (NCI-H460; first compound 0.5 µM) was 0.744 and the relative viability (SK-LU-1; first compound 0.005 µM) was 1.07. The relative viability (SK-LU-1; first compound 0.01581 µM) was 1.25, the relative viability (SK-LU-1; first compound 0.05 µM) was 1.2 and the relative viability (SK-LU-1; first compound 0.1581 µM) was 1.08. For the same compound, the relative viability (SK-LU-1; first compound 0.5 µM) was 0.773, the relative viability (UMC-11; first compound 0.005 µM) was 0.97 and the relative viability (UMC-11; first compound 0.01581 µM) was 1.03. The relative viability (UMC-11; first compound 0.1581 µM) was 1.01 and the relative viability (UMC-11; first compound 0.5 µM) was 0.893.
